Our source for the Ki and Ratio values is ChEMBL document CHEMBL1130595, “New generation dopaminergic agents. 5. Heterocyclic bioisosteres that exploit the 3-OH-N1-phenylpiperazine dopaminergic template” (Bioorg Med Chem Lett, 1998).

One experiment has as its target T1, D(4) dopamine receptor (Homo sapiens, UniProt P21917).
T1 sequence (P21917 whole entry): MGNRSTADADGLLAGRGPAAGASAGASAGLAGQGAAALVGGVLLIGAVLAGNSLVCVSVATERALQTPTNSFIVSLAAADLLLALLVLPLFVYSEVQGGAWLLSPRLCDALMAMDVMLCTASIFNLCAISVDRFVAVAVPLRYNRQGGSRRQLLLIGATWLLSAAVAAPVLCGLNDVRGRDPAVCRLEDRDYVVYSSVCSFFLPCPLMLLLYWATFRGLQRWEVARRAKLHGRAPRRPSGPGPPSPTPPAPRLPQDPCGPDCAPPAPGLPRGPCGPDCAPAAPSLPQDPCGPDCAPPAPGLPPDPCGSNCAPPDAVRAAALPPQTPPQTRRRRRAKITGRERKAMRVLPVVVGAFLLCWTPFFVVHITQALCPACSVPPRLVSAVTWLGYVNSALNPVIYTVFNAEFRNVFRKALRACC
Description: Affinity towards human Dopamine receptor D4.4 expressed in CHO cells using [3H]spiperone. Type of experiment: cell-based.

For a further experiment, the target named is D(3) dopamine receptor (Homo sapiens, UniProt P35462). Description: Affinity towards human Dopamine receptor D3 expressed in CHO cells using [3H]spiperone. Type of experiment: cell-based.
D(3) dopamine receptor, sequence (P35462 whole entry): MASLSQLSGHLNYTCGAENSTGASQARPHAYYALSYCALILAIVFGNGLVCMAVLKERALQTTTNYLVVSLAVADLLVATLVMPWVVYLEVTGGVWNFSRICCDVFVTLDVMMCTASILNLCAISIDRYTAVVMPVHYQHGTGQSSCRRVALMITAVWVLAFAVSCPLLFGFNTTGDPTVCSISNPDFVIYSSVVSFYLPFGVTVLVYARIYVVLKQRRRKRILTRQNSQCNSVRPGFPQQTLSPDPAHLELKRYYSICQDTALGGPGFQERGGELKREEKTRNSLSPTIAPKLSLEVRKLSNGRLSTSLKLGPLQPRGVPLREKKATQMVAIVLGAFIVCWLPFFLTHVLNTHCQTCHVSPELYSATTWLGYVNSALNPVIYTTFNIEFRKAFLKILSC
Experiment [1] addresses T2, D(2) dopamine receptor (Homo sapiens, UniProt P14416). As to the kind of experiment: Ratio of the affinity against D2 receptor at low antagonist state to that of D2 receptor at high agonist state. Type of experiment: functional.
Experiment [2] deals with T2, D(2) dopamine receptor. Description: Affinity towards human Dopamine receptor D2 expressed in CHO cells using [3H]spiperone. The format is cell-based.
Experiment [3] concerns the target T3, D(2) dopamine receptor (Rattus norvegicus, UniProt P61169).
Description: Affinity for Dopamine receptor D2 in rat striatal membranes for high agonist state using [3H]quinpirole
The target in experiment [4] is T3, D(2) dopamine receptor. This is another data set of the same source.
Description: Affinity of compound for the Dopamine receptor D2 in rat striatal membranes was determined for low antagonist state in rat striatal membranes using [3H]spiperone
Experiment [5] concerns the target T3, D(2) dopamine receptor. As to the kind of experiment: Affinity of compound for the D2 receptors in rat striatal membranes was determined for low antagonist state in rat striatal membranes using [3H]spiperone. The format is functional, cell membranes, Membrane.
For experiment [6], the target named is T3, D(2) dopamine receptor. As to the kind of experiment: Affinity of compound for the Dopamine receptor D2 in rat striatal membranes was determined for […] in rat striatal membranes using [3H]spiperone. The format is functional, cell membranes, Membrane.

pKi: −log10 of the molar value.

The term pKi denotes −log10 of the Ki, conventionally taken in molar units. Low readings indicate a large Ki, high ones a small Ki.

T2 sequence (P14416 whole entry): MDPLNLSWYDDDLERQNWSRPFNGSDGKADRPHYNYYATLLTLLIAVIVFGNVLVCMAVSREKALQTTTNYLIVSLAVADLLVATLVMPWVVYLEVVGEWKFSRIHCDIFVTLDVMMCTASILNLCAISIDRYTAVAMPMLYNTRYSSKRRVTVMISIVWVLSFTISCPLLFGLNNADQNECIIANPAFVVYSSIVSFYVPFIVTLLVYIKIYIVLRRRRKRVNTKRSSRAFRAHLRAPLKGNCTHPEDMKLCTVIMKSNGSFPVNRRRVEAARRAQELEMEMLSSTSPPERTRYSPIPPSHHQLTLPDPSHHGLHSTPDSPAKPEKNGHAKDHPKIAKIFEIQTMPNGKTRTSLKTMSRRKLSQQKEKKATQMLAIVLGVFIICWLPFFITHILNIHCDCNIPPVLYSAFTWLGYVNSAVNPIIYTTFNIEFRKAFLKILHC
T3 sequence (P61169 whole entry): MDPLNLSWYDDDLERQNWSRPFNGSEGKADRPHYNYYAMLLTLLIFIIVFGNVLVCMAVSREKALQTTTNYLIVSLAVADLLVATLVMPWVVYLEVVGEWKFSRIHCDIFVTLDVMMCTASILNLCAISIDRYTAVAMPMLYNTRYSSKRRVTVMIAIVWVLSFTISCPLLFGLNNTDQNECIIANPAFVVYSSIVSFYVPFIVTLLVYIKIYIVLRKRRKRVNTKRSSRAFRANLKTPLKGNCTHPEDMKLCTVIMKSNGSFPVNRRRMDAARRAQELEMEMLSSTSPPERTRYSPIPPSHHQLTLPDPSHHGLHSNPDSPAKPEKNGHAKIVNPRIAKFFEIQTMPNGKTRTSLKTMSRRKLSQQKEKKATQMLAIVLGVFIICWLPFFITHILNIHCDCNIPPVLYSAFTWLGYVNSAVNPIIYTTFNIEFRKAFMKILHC

For `Brc1ccc(N2CCN(Cc3ccccc3)CC2)c2cc[nH]c12`, the negative logarithm of the Ki (pKi) at D(4) dopamine receptor was 8.59; at D(3) dopamine receptor, 7.25; on D(2) dopamine receptor [2], 7.33; at D(2) dopamine receptor [3], 7.57; on D(2) dopamine receptor [4], 7.91. Besides, on D(2) dopamine receptor [1], the Ratio turned out to be 0.5.
`Clc1ccc2[nH]ccc2c1N1CCN(Cc2ccccc2)CC1`: the pKi at D(4) dopamine receptor was 8.77; at D(2) dopamine receptor [5], 7.37; at D(3) dopamine receptor, 7.02; on D(2) dopamine receptor [2] it was 7.09; on D(2) dopamine receptor [3], 8.04. In addition, the Ratio at D(2) dopamine receptor [1] came out at 5.
Regarding `FC(F)(F)c1nc2c(N3CCN(Cc4ccccc4)CC3)cccc2[nH]1`, the pKi on D(4) dopamine receptor was 8.54; on D(2) dopamine receptor [6], 8.48; at D(3) dopamine receptor, 7.83; at D(2) dopamine receptor [2], 8.39; at D(2) dopamine receptor [3], 9.29. The Ratio at D(2) dopamine receptor [1] is 6.
Regarding `O=C1Cc2c(cccc2N2CCN(Cc3ccccc3)CC2)N1`, the negative-log Ki (pKi) was 8.52 on D(4) dopamine receptor; 8.27 on D(3) dopamine receptor; 8.10 on D(2) dopamine receptor [2]; 9.25 at D(2) dopamine receptor [3]; 8.09 at D(2) dopamine receptor [4]. For the same compound, the Ratio at D(2) dopamine receptor [1] is 14.
On to `O=c1[nH]c2cccc(N3CCN(Cc4ccccc4)CC3)c2[nH]1`, for which the pKi at D(4) dopamine receptor was 7.84; at D(3) dopamine receptor, 7.25.
As to `O=C1Cc2c(ccc(Cl)c2N2CCN(Cc3ccccc3)CC2)N1`, the pKi at D(4) dopamine receptor was 8.06; at D(3) dopamine receptor, 6.23; at D(2) dopamine receptor [2], 6.27; on D(2) dopamine receptor [3], 7.07; on D(2) dopamine receptor [4] it was 6.39. At D(2) dopamine receptor [1], the Ratio was 7.
Take `c1ccc(CN2CCN(c3cccc4[nH]ccc34)CC2)cc1`: the pKi is 7.83 on D(4) dopamine receptor and 7.45 on D(3) dopamine receptor.
For the compound `c1ccc(CN2CCN(c3cccc4[nH]cnc34)CC2)cc1`, the pKi at D(4) dopamine receptor is 7.33; on D(3) dopamine receptor it was 6.06; at D(2) dopamine receptor [2], 6.59; at D(2) dopamine receptor [3], 8.01; at D(2) dopamine receptor [4], 6.97. For the same compound, the Ratio at D(2) dopamine receptor [1] is 11.
